Experimental data: the NIST ThermoML archive (doi:10.1016/j.fluid.2012.08.009)

Details: Liquid; for vapor or sublimation pressure: Ebulliometric method (Recirculating still); for Normal boiling temperature: Siwoloboff method

CCO[Si](C)(OCC)c1cccc(C)c1 [diethoxy(methyl)(m-tolyl)silane]
Details	Normal boiling temperature [°C]	vapor or sublimation pressure [kPa]
–	235.8	–
391.91 K	–	2
400.12 K	–	3
406.47 K	–	4
411.84 K	–	5
416.3 K	–	6
420.23 K	–	7
426.81 K	–	9
432.31 K	–	11
439.13 K	–	14
444.83 K	–	17
449.84 K	–	20
454.26 K	–	23
458.23 K	–	26
461.73 K	–	29
465.1 K	–	32
468.22 K	–	35
471.02 K	–	38
473.69 K	–	41
476.21 K	–	44
478.56 K	–	47
480.85 K	–	50
483.08 K	–	53
485.67 K	–	57
488.08 K	–	61

CCO[Si](C)(OCC)c1ccc(C)cc1 [diethoxy(methyl)(p-tolyl)silane]
Details	Normal boiling temperature [°C]	vapor or sublimation pressure [kPa]
–	239.57	–
394.65 K	–	2
402.86 K	–	3
409.39 K	–	4
414.72 K	–	5
419.19 K	–	6
423.25 K	–	7
429.82 K	–	9
435.35 K	–	11
442.33 K	–	14
448.16 K	–	17
453.16 K	–	20
457.61 K	–	23
461.72 K	–	26
465.36 K	–	29
468.68 K	–	32
471.81 K	–	35
474.73 K	–	38
477.27 K	–	41
479.82 K	–	44
482.24 K	–	47
484.62 K	–	50
486.87 K	–	53

CCO[Si](C)(OCC)c1ccccc1C [diethoxy(methyl)(o-tolyl)silane]
Details	Normal boiling temperature [°C]	vapor or sublimation pressure [kPa]
–	239.83	–
393.45 K	–	2
401.5 K	–	3
407.98 K	–	4
413.33 K	–	5
417.79 K	–	6
421.8 K	–	7
431.54 K	–	10
439.05 K	–	13
445.46 K	–	16
450.67 K	–	19
455.4 K	–	22
459.55 K	–	25
463.3 K	–	28
466.73 K	–	31
469.94 K	–	34
472.92 K	–	37
475.72 K	–	40
478.35 K	–	43
480.89 K	–	46
483.26 K	–	49

CN1CCCC1=O [N-methylpyrrolidone]
Details	Normal boiling temperature [°C]	vapor or sublimation pressure [kPa]
–	202.14	–
380.76 K	–	4.742
388.05 K	–	6.361
400.39 K	–	10.29
411.34 K	–	15.22
420.9 K	–	20.97
432.23 K	–	30.08
441.78 K	–	39.96
451.08 K	–	52.18
457.44 K	–	62.11
475.79 K	–	99.4
